As a reminder, the Ki is a measure of affinity in units of concentration, obtained from inhibition or displacement. A low value points to tighter binding.

Consider 20 compounds from US8940898B2, “Piperidinyl alkyne orexin receptor antagonists” (Merck Sharp & Dohme Corp., priority 2011, dated 2015).

One test concerns the target T1, hOX1 (orexin-1 receptor) (Homo sapiens, UniProt O43613).
T1 construct: expressed in transfected cells; host or cells: CHO cells (membranes)
T1 sequence (O43613 1-425): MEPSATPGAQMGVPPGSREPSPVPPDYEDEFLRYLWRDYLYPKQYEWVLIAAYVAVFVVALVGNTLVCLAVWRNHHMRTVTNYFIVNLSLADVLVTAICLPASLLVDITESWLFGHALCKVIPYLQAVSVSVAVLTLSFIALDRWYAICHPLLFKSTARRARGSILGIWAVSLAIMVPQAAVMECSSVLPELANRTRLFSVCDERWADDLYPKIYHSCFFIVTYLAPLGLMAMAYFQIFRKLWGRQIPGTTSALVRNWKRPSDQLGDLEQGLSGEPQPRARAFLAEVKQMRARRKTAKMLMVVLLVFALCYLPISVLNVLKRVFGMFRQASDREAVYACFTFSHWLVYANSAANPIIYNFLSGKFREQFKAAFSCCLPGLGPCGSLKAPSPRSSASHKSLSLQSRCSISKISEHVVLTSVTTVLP
The experiment in a line: radioligand binding assay, OX1 receptor (hOX1 Bind hKi). As to conditions: membranes from CHO cells expressing the OX1 receptor.

A further test addresses T2, human orexin-2 receptor (Homo sapiens, UniProt O43614).
T2 construct: expressed in transfected cells; host or cells: CHO cells (membranes)
T2 sequence (O43614 1-444): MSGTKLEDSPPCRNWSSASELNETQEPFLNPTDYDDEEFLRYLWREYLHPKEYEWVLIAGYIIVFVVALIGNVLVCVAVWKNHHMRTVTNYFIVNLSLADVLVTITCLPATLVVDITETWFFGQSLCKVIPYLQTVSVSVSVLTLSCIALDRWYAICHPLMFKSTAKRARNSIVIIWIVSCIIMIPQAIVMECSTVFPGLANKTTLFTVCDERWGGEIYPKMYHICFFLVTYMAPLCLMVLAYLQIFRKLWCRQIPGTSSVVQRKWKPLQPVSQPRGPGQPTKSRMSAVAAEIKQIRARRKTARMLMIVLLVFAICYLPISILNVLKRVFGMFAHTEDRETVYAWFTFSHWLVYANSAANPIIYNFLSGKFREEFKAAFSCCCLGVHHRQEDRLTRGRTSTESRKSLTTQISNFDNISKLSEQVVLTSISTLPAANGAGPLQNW
The experiment in a line: radioligand binding assay, OX2 receptor (hOX2 Bind hKi). As to conditions: membranes from CHO cells expressing the OX2 receptor. The protocol:
The utility of the compounds in accordance with the present invention as orexin receptor OX1R and/or OX2R antagonists may be readily determined without undue experimentation by methodology well known in the art, including the “FLIPR Ca^2+ Flux Assay” (Okumura et al., Biochem. Biophys. Res. Comm. 280:976-981, 2001). In a typical experiment the OX1 and OX2 receptor antagonistic activity of the compounds of the present invention was determined in accordance with the following experimental method. For intracellular calcium measurements, Chinese hamster ovary (CHO) cells expressing the rat orexin-1 receptor or the human orexin-2 receptor, are grown in Iscove's modified DMEM containing 2 mM L-glutamine, […], 1% hypoxanthine-thymidine supplement, 100 U/ml penicillin, 100 μg/ml streptomycin and 10% heat-inactivated fetal calf serum (FCS). The cells are seeded at 20,000 cells/well into Becton-Dickinson black 384-well clear bottom sterile plates coated with poly-D-lysine. All reagents were from GIBCO-Invitrogen Corp. The seeded plates are incubated overnight at 37° C. and 5% CO2. Ala-6,12 human orexin-A as the agonist is prepared as a 1 mM stock solution in 1% bovine serum albumin (BSA) and diluted in assay buffer (HBSS containing 20 mM HEPES, 0.1% BSA and 2.5 mM probenecid, pH7.4) for use in the assay at a final concentration of 70 pM. Test compounds are prepared as 10 mM stock solution in DMSO, then diluted in 384-well plates, first in DMSO, then assay buffer. On the day of the assay, cells are washed 3 times with 100 μl assay buffer and then incubated for 60 min (37° C., 5% CO2) in 60 μl assay buffer containing 1 μM Fluo-4AM ester, 0.02% pluronic acid, and 1% BSA. The dye loading solution is then aspirated and cells are washed 3 times with 100 μl assay buffer. 30 μl of that same buffer is left in each well. Within the Fluorescent Imaging Plate Reader (FLIPR, Molecular Devices), test compounds are added to the plate in a volume of 25 μl, incubated for 5 min and finally 25 μl of agonist is added. Fluorescence is measured for each well at 1 second intervals for 5 minutes and the height of each fluorescence peak is compared to the height of the fluorescence peak induced by […] Ala-6,12 orexin-A with buffer in place of antagonist. For each antagonist, IC50 value (the concentration of compound needed to inhibit 50% of the agonist response) is determined. Alternatively, compound potency can be assessed by a radioligand binding assay (described in Bergman et. al. Bioorg. Med. Chem. Lett. 2008, 18, 1425-1430) in which the inhibition constant (Ki) is determined in membranes prepared from CHO cells expressing either the OX1 or OX2 receptor. The intrinsic orexin receptor antagonist activity of a compound which may be used in the present invention may be determined by these assays. The following tables show representative data for the compounds of the Examples as orexin receptor antagonists as determined by the foregoing assays wherein the hOX2 Ki is a measure of the ability of the test compound to inhibit the action of the human orexin-2 receptor and the hOX1R is a measure of the ability of the test compound to inhibit the action of the rat orexin-1 receptor.

SMILES strings stand for the structures.

As for `C[C@@H]1CCC(C#Cc2ccccn2)CN1C(=O)c1ccccc1-n1nccn1` (stereo in doubt) [Example 1, [(2R,5R)-2-Methyl-5-(pyridin-2-ylethynyl)piperidin-1-yl][2-(2H-1,2,3-triazol-2-yl)phenyl]methanone], the figures for the Ki at hOX1 (orexin-1 receptor) and at human orexin-2 receptor were 27 nM and 11 nM, respectively.

Turning to `C[C@@H]1CC[C@@H](C#Cc2ccncc2)CN1C(=O)c1ccccc1-n1nccn1` [Example 2, 4-{[(3S,6R)-6-methyl-1-{[2-(2H-1,2,3-triazol-2-yl)phenyl]carbonyl}piperidin-3-yl]ethynyl}pyridine], the Ki at hOX1 (orexin-1 receptor) was 107 nM; at human orexin-2 receptor, 41 nM.

Take `C[C@@H]1CC[C@@H](C#Cc2cccnc2)CN1C(=O)c1ccccc1-n1nccn1` [Example 3, 3-{[(3S,6R)-6-methyl-1-{[2-(2H-1,2,3-triazol-2-yl)phenyl]carbonyl}piperidin-3-yl]ethynyl}pyridine]: the Ki worked out at 26 nM on hOX1 (orexin-1 receptor) and 7 nM on human orexin-2 receptor.

As to `C[C@@H]1CC[C@@H](C#Cc2cccnc2O)CN1C(=O)c1ccccc1-n1nccn1` [Example 4, 3-{[(3S,6R)-6-methyl-1-{[2-(2H-1,2,3-triazol-2-yl)phenyl]carbonyl}piperidin-3-yl]ethynyl}pyridin-2-ol], the Ki at hOX1 (orexin-1 receptor) and on human orexin-2 receptor was 24 nM in each case.

In the case of `C[C@@H]1CC[C@@H](C#Cc2cnccc2O)CN1C(=O)c1ccccc1-n1nccn1` [Example 5, 3-{[(3S,6R)-6-methyl-1-{[2-(2H-1,2,3-triazol-2-yl)phenyl]carbonyl}piperidin-3-yl]ethynyl}pyridin-4-ol], the Ki at hOX1 (orexin-1 receptor) was 866 nM; on human orexin-2 receptor, 7.5 nM.

`C[C@@H]1CC[C@@H](C#Cc2ccccc2CO)CN1C(=O)c1ccccc1-n1nccn1` [Example 6, (2-{[(3S,6R)-6-methyl-1-{[2-(2H-1,2,3-triazol-2-yl)phenyl]carbonyl}piperidin-3-yl]ethynyl}phenyl)methanol]: the inhibition constant Ki at hOX1 (orexin-1 receptor) came out at 0.56 nM; on human orexin-2 receptor, 0.53 nM.

Turning to `C[C@@H]1CC[C@@H](C#Cc2ccc(CO)nc2)CN1C(=O)c1ccccc1-n1nccn1` [Example 7, (5-{[(3S,6R)-6-methyl-1-{[2-(2H-1,2,3-triazol-2-yl)phenyl]carbonyl}piperidin-3-yl]ethynyl}pyridin-2-yl)methanol], the figures for the Ki at hOX1 (orexin-1 receptor) and on human orexin-2 receptor were 339 nM and approximately 150 nM, respectively.

Turning to `C[C@@H]1CC[C@@H](C#Cc2ccc(CO)cn2)CN1C(=O)c1ccccc1-n1nccn1` [Example 8, (6-{[(3S,6R)-6-methyl-1-{[2-(2H-1,2,3-triazol-2-yl)phenyl]carbonyl}piperidin-3-yl]ethynyl}pyridin-3-yl)methanol], the Ki at hOX1 (orexin-1 receptor) turned out to be 211 nM; on human orexin-2 receptor it was 130 nM.

For `C[C@@H]1CC[C@@H](C#Cc2cccc(CO)n2)CN1C(=O)c1ccccc1-n1nccn1` [Example 9, (6-{[(3S,6R)-6-methyl-1-{[2-(2H-1,2,3-triazol-2-yl)phenyl]carbonyl}piperidin-3-yl]ethynyl}pyridin-2-yl)methanol], the inhibition constant Ki was 18 nM at hOX1 (orexin-1 receptor) and 5.6 nM on human orexin-2 receptor.

In the case of `C[C@@H]1CC[C@@H](C#Cc2cc(CO)ccn2)CN1C(=O)c1ccccc1-n1nccn1` [Example 10, (2-{[(3S,6R)-6-methyl-1-{[2-(2H-1,2,3-triazol-2-yl)phenyl]carbonyl}piperidin-3-yl]ethynyl}pyridin-4-yl)methanol], the Ki worked out at 76 nM on hOX1 (orexin-1 receptor) and 42 nM on human orexin-2 receptor.

Consider `C[C@@H]1CC[C@@H](C#Cc2cncc(CO)c2)CN1C(=O)c1ccccc1-n1nccn1` [Example 11, (5-{[(3S,6R)-6-methyl-1-{[2-(2H-1,2,3-triazol-2-yl)phenyl]carbonyl}piperidin-3-yl]ethynyl}pyridin-3-yl)methanol], for which the Ki worked out at 108 nM on hOX1 (orexin-1 receptor) and 32 nM on human orexin-2 receptor.

Consider `C[C@@H]1CC[C@@H](C#Cc2ccnc(CO)c2)CN1C(=O)c1ccccc1-n1nccn1` [Example 12, (4-{[(3S,6R)-6-methyl-1-{[2-(2H-1,2,3-triazol-2-yl)phenyl]carbonyl}piperidin-3-yl]ethynyl}pyridin-2-yl)methanol], for which the inhibition constant Ki on hOX1 (orexin-1 receptor) turned out to be 75 nM; at human orexin-2 receptor, 25 nM.

As for `Cc1ccc(-n2nccn2)c(C(=O)N2CCCCC2C#Cc2ccccc2)c1` (stereo not shown) [Example 14, [5-Methyl-2-(2H-1,2,3-triazol-2-yl)phenyl][2-(phenylethynyl)piperidin-1-yl]methanone], the values for the inhibition constant (Ki) at hOX1 (orexin-1 receptor) and on human orexin-2 receptor were 357 nM and 441 nM, respectively.

Consider `Cc1ccc(-n2nccn2)c(C(=O)N2CCCCC2C#Cc2ccc(F)cn2)c1` (stereo not shown) [Example 15, 5-fluoro-2-[(1-{[5-methyl-2-(2H-1,2,3-triazol-2-yl)phenyl]carbonyl}piperidin-2-yl)ethynyl]pyridine], for which the values for the Ki at hOX1 (orexin-1 receptor) and on human orexin-2 receptor were more than 2540 nM and 1000 nM, respectively.

In the case of `Cc1ccc(-n2nccn2)c(C(=O)N2CCCCC2C#Cc2ccc(F)cc2)c1` (stereo not shown) [Example 16, 2-[(4-fluorophenyl)ethynyl]-1-{[5-methyl-2-(2H-1,2,3-triazol-2-yl)phenyl]carbonyl}piperidine], the results for the Ki at hOX1 (orexin-1 receptor) and on human orexin-2 receptor were 248 nM and 160 nM, respectively.

Turning to `Cc1ccc(-n2nccn2)c(C(=O)N2CCCCC2C#Cc2ccc3ccccc3n2)c1` (stereo not shown) [Example 17, 2-[(1-{[5-methyl-2-(2H-1,2,3-triazol-2-yl)phenyl]carbonyl)piperidin-2-yl)ethynyl]quinoline], the results for the Ki on hOX1 (orexin-1 receptor) and at human orexin-2 receptor were 332 nM and more than 4460 nM, respectively.

On to `Cc1ccc(-n2nccn2)c(C(=O)N2CCCCC2C#Cc2cnc3ccccc3c2)c1` (stereo not shown) [Example 18, 3-[(1-{[5-methyl-2-(2H-1,2,3-triazol-2-yl)phenyl]carbonyl}piperidin-2-yl)ethynyl]quinoline], for which the inhibition constant Ki at hOX1 (orexin-1 receptor) is more than 476 nM; on human orexin-2 receptor, more than 4460 nM.

As to `Cc1ccc(-n2nccn2)c(C(=O)N2CCCCC2C#Cc2ccc3ccccc3c2)c1` (stereo not shown) [Example 19, 1-{[5-methyl-2-(2H-1,2,3-triazol-2-yl)phenyl]carbonyl}-2-(naphthalen-2-ylethynyl)piperidine], the Ki at hOX1 (orexin-1 receptor) was more than 476 nM; at human orexin-2 receptor, 2830 nM.

Consider `Cc1nc(C(=O)N2CCCCC2C#Cc2ccccc2)c(-c2ccccc2)s1` (stereo not shown) [Example 20, (2-Methyl-5-phenyl-1,3-thiazol-4-yl) [2-(phenylethynyl)piperidin-1-yl]methanone], for which the Ki was 257 nM at hOX1 (orexin-1 receptor) and more than 1170 nM on human orexin-2 receptor.

Turning to `Cc1nc(C(=O)N2CCCCC2C#Cc2ccc3ccccc3c2)c(-c2ccccc2)s1` (stereo not shown) [Example 21, 1-[(2-methyl-5-phenyl-1,3-thiazol-4-yl)carbonyl]-2-(naphthalen-2-ylethynyl)piperidine], the values for the Ki at hOX1 (orexin-1 receptor) and on human orexin-2 receptor were more than 1600 nM and more than 754 nM, respectively.
